The source made the active and inactive calls. No cut-off for these calls is given here.
Legend:
Neutrophil = test: Inhibition of TNF-alpha induced necroptosis in human neutrophil cells assessed as increase in cell viability incubated for 18 hrs in presence of zVAD and SMAC007 by Cell Titer-Glo luminescent cell viability assay; type: functional, cell-based
[1] = biological target: T1, Inhibitor of nuclear factor kappa-B kinase subunit alpha (Homo sapiens) (UniProt O15111); test: Inhibition of human IKKa/CHUK using KKKKERLLDDRHDSGLDSMKDEE as substrate at 1 uM in presence of 32P-ATP by Hotspot assay relative to control; values are per cent of control
T1 sequence (whole entry): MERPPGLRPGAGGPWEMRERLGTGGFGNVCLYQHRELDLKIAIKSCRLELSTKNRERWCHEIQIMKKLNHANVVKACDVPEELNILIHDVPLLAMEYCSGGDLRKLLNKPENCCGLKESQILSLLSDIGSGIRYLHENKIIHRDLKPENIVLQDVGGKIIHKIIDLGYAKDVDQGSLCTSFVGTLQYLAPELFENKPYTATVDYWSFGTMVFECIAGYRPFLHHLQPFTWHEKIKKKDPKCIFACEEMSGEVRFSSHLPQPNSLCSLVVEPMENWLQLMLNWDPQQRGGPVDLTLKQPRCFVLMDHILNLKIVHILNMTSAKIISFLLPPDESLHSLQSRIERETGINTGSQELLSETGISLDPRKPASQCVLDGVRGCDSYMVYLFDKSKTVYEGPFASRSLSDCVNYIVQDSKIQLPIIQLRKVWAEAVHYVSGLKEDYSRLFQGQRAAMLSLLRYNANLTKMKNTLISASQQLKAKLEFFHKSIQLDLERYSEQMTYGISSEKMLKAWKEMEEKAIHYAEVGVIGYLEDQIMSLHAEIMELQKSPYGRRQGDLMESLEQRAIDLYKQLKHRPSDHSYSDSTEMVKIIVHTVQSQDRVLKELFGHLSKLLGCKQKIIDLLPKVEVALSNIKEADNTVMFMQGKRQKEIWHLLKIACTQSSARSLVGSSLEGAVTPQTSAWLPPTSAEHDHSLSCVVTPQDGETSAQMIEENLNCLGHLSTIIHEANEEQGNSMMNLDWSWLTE

[2] = biological target: Mitogen-activated protein kinase 11 (Homo sapiens) (UniProt Q15759); test: Inhibition of human P38b/MAPK11 using myelin basic protein as substrate at 1 uM in presence of 32P-ATP by Hotspot assay relative to control; values are per cent of control
[3] = biological target: Glycogen synthase kinase-3 alpha (Homo sapiens) (UniProt P49840); test: Inhibition of human GSK3a using YRRAAVPPSPSLSRHSSPHQ(pS)EDEEE as substrate at 1 uM in presence of 32P-ATP by Hotspot assay relative to control; values are per cent of control
[4] = biological target: T2, Serine/threonine-protein kinase haspin (Homo sapiens) (UniProt Q8TF76); test: Inhibition of human Haspin using histone H3 as substrate at 1 uM in presence of 32P-ATP by Hotspot assay relative to control; values are per cent of control
T2 sequence (whole entry): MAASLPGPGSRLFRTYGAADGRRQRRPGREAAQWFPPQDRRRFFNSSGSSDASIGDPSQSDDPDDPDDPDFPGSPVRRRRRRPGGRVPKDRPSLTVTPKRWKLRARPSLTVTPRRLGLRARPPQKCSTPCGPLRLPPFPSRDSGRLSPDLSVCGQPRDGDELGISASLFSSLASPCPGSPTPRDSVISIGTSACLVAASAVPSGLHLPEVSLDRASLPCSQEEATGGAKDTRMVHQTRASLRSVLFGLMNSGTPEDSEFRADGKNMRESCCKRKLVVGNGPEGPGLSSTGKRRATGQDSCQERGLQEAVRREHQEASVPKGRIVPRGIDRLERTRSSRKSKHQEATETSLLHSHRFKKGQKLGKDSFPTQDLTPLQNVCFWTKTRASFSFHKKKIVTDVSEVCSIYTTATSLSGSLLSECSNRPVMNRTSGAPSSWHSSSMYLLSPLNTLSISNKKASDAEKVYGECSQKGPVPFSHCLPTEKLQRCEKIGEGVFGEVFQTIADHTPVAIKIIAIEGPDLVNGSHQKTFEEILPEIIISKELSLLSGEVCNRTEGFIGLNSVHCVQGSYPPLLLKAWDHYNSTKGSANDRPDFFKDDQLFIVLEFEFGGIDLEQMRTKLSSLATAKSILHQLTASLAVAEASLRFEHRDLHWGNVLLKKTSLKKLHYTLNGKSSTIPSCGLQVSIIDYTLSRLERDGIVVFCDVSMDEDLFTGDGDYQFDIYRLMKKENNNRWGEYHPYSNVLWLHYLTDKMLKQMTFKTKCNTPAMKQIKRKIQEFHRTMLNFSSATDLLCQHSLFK

[5] = biological target: Serine/threonine-protein kinase Nek7 (Homo sapiens) (UniProt Q8TDX7); test: Inhibition of human NEK7 using casein as substrate at 1 uM in presence of 32P-ATP by Hotspot assay relative to control; values are per cent of control
Chain of Serine/threonine-protein kinase Nek7 (Homo sapiens) (Q8TDX7 whole entry, looked up): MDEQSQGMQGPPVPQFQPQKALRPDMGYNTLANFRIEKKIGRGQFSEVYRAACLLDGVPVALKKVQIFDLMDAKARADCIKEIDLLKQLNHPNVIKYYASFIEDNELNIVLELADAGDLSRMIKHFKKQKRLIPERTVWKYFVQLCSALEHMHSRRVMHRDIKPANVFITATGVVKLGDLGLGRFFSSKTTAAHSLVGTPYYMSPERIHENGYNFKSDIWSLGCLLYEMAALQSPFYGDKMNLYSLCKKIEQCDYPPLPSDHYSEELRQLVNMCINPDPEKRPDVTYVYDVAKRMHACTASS

Chain of Glycogen synthase kinase-3 alpha (Homo sapiens) (P49840 2-483 limits assumed): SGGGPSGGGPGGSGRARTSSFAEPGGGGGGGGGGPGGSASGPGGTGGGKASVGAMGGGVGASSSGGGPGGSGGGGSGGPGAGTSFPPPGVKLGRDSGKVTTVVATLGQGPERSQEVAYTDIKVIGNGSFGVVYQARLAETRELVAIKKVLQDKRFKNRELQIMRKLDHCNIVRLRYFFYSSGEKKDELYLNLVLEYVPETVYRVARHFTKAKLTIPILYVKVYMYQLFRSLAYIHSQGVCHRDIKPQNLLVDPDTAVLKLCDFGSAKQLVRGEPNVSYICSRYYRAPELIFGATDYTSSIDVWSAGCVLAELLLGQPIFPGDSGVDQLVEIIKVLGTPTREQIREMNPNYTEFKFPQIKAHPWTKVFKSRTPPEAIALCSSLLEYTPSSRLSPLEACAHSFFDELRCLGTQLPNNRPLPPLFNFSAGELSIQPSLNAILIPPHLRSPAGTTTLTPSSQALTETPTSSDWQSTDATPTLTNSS
Chain of Mitogen-activated protein kinase 11 (Homo sapiens) (Q15759 whole entry): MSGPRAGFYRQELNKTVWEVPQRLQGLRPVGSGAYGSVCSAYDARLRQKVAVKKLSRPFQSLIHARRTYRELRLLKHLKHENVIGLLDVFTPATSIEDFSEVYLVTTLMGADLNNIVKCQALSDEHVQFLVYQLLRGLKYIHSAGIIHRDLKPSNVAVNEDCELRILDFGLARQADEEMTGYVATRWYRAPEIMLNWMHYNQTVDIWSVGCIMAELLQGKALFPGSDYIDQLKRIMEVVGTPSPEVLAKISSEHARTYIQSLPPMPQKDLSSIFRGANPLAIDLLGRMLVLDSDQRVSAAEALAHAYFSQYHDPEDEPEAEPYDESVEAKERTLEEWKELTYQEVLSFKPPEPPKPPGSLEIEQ

SMILES	inhibition (Neutrophil)	residual activity [1]	residual activity [2]	residual activity [3]	residual activity [4]	residual activity [5]
CC(C)S(=O)(=O)c1ccc2nccc(Nc3ccc4scnc4c3)c2c1	Active	88.2%	102%	92.4%	86.2%	95.6%
Cc1cc(-c2cnc(N)c3c(-c4ccc5scnc5c4)csc23)n(C)n1	Active	94.8%	37.8%	99.8%	95.5%	94.9%
CNC(=O)c1ccc2c(c1)ncn2-c1ccc(CC(=O)OC(C)(C)C)cc1	Active	89.9%	97.1%	99.8%	98.1%	91.5%

From ChEMBL document CHEMBL5649166, “RIP3 induces apoptosis independent of pronecrotic kinase activity” (Mol Cell, 2014)
